# Measurements reported in patent US9969715B2, “Compounds useful for treating cancer” (ABIVAX, priority 2012, dated 2018).
# Columns and labels:
# [1] = test system: human PBMC; experiment: Toxicity assay under normal cell culture conditions (MTS), PBMC; assay type: cell-based; details: human PBMC, RPMI+10% FBS+IL-2, 72 h incubation, MTS
# Description: (§1) Toxicity Assays (Under Normal Cell Culture Conditions):
# (§2) Compounds were prepared as for the invasion assay, and then added to either MDA-MB231-luc-D3H2LN cells (2000/well) under normal culture conditions (MEM+10% FBS), or human PBMC (75000/well, in RPMI+10% FBS+IL-2) in standard 96-well tissue culture plates. After 72 h incubation, a standard MTS assay was performed according to the manufacturer's instructions (Promega Ref. G3581). Compounds were tested at various concentrations (concentration-response curves) in order to determine the concentrations at which 50% toxicity is obtained.
# [2] = test system: MDA-MB231-luc-D3H2LN cells; experiment: Toxicity assay under normal cell culture conditions (MTS), MDA cells; assay type: cell-based, human; details: MDA-MB231-luc-D3H2LN cells, MEM+10% FBS, 72 h incubation, MTS
# Description: (§3) In order to detect possible toxic effects, all compounds are tested in parallel in a viability assay. The viability assay is performed in parallel on serum-starved cells (as in the invasion assay) vs. cells under normal culture conditions (10% FBS).
# as §1, §2
# [3] = test system: MDA-MB231-luc-D3H2LN cells; experiment: Viability (MTS) assay on the cells in collagen under invasion assay conditions; assay type: cell-based, human; details: loss of viability at the concentration giving 0.5 × effect of 10 μM Y-27632, invasion assay conditions
# Description: (§4) Viability assay, fixation and staining: Following another 24 h incubation, an MTS assay is performed directly on the cells in the collagen. Then, cells are fixed and nuclei are stained.
# as §3
# Viability Assay: MTS Assay:
# add each 33 μl/well of the MTS reagent, incubate 3-4 h at 37° C./5% CO2
# read absorbance at 490 nm (proportional to the viability)
# calculate the background-corrected signals by subtracting the means of the background signals in absence of cells from the corresponding signals in presence of cells
# normalize the background-corrected signals with respect to the mean signal of the negative controls (no drug) (viabilities are thus expressed in “% of control”)
# (§5) Final analysis: Determine the concentration at which a given compound has 50% of the anti-invasive effect of the positive control (10 μM Y-27632). Determine the toxicity (=loss of viability) of the compound under these conditions.
# [4] = test system: MDA-MB231-luc-D3H2LN cells; experiment: Invasion of MDA-MB231-D3H2LN cells into collagen (example 15 = procedure 2, 48 h drug pre-incubation); assay type: cell-based; details: concentration giving 50% of the anti-invasive effect of 10 μM Y-27632; 48 h pre-incubation, 24 h with 5% FBS; read-out: MDA: Inhib. of invasion: 0.5 × eff. of 10 μM Y-27632 at (μM) av
# Description: Effect of Drug Compounds on Invasion of MDA-MB231-D3H2LN Cells into Collagen
# Preparation of cells at the bottom of a collagen gel: Cells are suspended in a liquid collagen solution (4° C.), distributed into BSA-coated wells, and then collected at the bottom of the wells by centrifugation. The collagen is then solidified by incubation at 37° C. The BSA coating improves the adhesion of the collagen gel.
# Pre-treatment with the compounds to be tested: Concentrated drug solutions are then added on top of the collagen, and cells are pre-incubated for 48 h with the drugs at low serum conditions (0.025% FBS).
# Stimulation of invasion: Medium with 5% FBS is then added in order to stimulate invasion of the cells into the collagen gel.
# as §4
# Analysis: Finally, plates are analyzed using an automated microscope. Fluorescent beads that have been included into the BSA coating serve to detect the bottom of the wells. Pictures of the stained nuclei are taken at the same level (0 μm) as well as 25 μm and 50 μm above.
# Negative control: No drug (just DMSO at equivalent concentration). Positive control: 10 μM Y-27632. To avoid edge effects, cells are added only to the 60 central wells B2-G11; lines A and H receive only collagen without cells (blank for the MTS assay) columns 1 and 12 remain free. Each drug is tested at least in triplicate. The positive and negative controls should be tested in several triplicates at different positions on each plate. Typical plate map (−=negative control, +=positive control, 1-12=12 different test conditions, i. e. different drug compounds or concentrations):
# Preparation of 4× concentrated drug solutions in MEM+0.1% FBS+2% Lutrol E-400+0.8% DMSO: Mix each 620 μl MEM+0.1% FBS+2% Lutrol E-400 with each 4 μl DMSO+each 1 μl of the 50 mM compound stock solutions (yielding […] and 0.8% DMSO). If the desired final compound concentration is <5 μM, then further dilute in MEM+0.1% FBS+0.8% DMSO. Negative control: MEM+0.1% FBS+2% Lutrol E-400+0.8% DMSO without any drug. Preparation of the positive control: Mix 4.5 ml MEM+0.1% FBS+2% Lutrol E-400+[…] with 36 μl 5 mM Y-27632 (freshly thawed aliquot) (yielding 40 μM).
# add each 33 μl/well of the 4× concentrated drug solutions in MEM+0.1% FBS+2% Lutrol E-400+0.8% DMSO to the corresponding wells (yields 1× concentrated drugs in MEM+0.025% FBS+0.5% Lutrol E-400+0.2% DMSO final)
# incubate 48 h at 37° C./5% CO2
# incubate 24 h at 37° C./5% CO2
# for each well, calculate the mean invasion distance of the counted cells: (25 μm×number of cells at 25 μm+50 μm×number cells at 50 μm)/sum of cells at 0, 25 and 50 μm
# invalidate any replicate with a CV≥50% (compound to be re-tested, or assay to be repeated if CV≥50% for the untreated negative control or the compound Y-27632-treated positive control). Y27632 is a selective inhibitor of the Rho-associated protein kinase p160ROCK of the following formula
# validate the assay only if the mean invasion distance of the cells treated with 10 μM Y-27632 (positive control) is decreased by ≥40% as compared to the untreated negative control
# as §5
# Here, invasion (into collagen) is the concentration of the compound necessary to reach 50% of the inhibition effect compared to 10 μM Y-27632.
# Standard operating procedure 2 is exactly the same as the procedure as described in example 15.
IC50 [4],SMILES,PBMC tox.: 50% tox. at (μM) av [1],MDA tox: 50% tox. at (μM) av [2],(+ MDA tox. under these cond.) % tox [3]
3.55 µM,"CN(C(=O)c1cccc(Nc2cccc(S(=O)(=O)NCCCN3CCCCC3)c2)c1)c1ccncc1 [Compound 24, N-methyl-3-((3-(N-(3-(piperidin-1-yl)propyl)sulfamoyl)phenyl)amino)-N-(pyridin-4-yl)benzamide]",≥100 µM,>100 µM,<10%
0.2 µM,"CN1CCN(CCCNC(=O)c2ccnc(Nc3cccc(C(=O)Nc4ccncn4)c3)c2)CC1 [Compound 42, N-(3-(4-methylpiperazin-1-yl)propyl)-2-((3-(pyrimidin-4-ylcarbamoyl)phenyl)amino)isonicotinamide]",>100 µM,≥100 µM,<10%
0.85 µM,"CN1CCN(CCCNC(=O)c2cccc(Nc3cccc(C(=O)N(C)c4ccncc4)c3)c2)CC1 [Compound 20, N-methyl-3-((3-((3-(4-methylpiperazin-1-yl)propyl)carbamoyl)phenyl)amino)-N-(pyridin-4-yl)benzamide]",>100 µM,>100 µM,<10%
0.3 µM,"CN1CCN(CCCNC(=O)c2cccc(Nc3cc(C(=O)Nc4ccncc4)ccn3)c2)CC1 [Compound 51, 2-((3-((3-(4-methylpiperazin-1-yl)propyl)carbamoyl)phenyl)amino)-N-(pyridin-4-yl)isonicotinamide]",>100 µM,≥100 µM,<10%
> 5 µM,"CN(C(=O)c1cccc(Nc2cccc(S(=O)(=O)NCCCN3CCOCC3)c2)c1)c1ccncc1 [Compound 23, N-methyl-3-((3-(N-(3-morpholinopropyl)sulfamoyl)phenyl)amino)-N-(pyridin-4-yl)benzamide]",>70 µM,>100 µM,
7.5 µM,"CN1CCN(C(=O)c2cccc(Nc3cccc(C(=O)Nc4ccncc4)c3)c2)CC1 [Compound 8, 3-((3-(4-methylpiperazine-1-carbonyl)phenyl)amino)-N-(pyridin-4-yl)benzamide]",,>>100 μM,

# Further lines, the molecule ahead of its results:
SMILES,IC50 [4],PBMC tox.: 50% tox. at (μM) av [1],MDA tox: 50% tox. at (μM) av [2],(+ MDA tox. under these cond.) % tox [3]
"CCN(CC)CCCNC(=O)c1ccnc(Nc2cccc(C(=O)Nc3ccncc3)c2)c1 [Compound 33, N-(3-(diethylamino)propyl)-2-((3-(pyridin-4-ylcarbamoyl)phenyl)amino) isonicotinamide]",2.13 µM,130 µM,118 µM,<10%
"CCN(CC)CCCNC(=O)c1cccc(Nc2cc(C(=O)Nc3ccncc3)ccn2)c1 [Compound 47, 2-((3-((3-(diethylamino)propyl)carbamoyl)phenyl)amino)-N-(pyridin-4-yl)isonicotinamide]",2.2 µM,>100 µM,>100 µM,<10%
"CCN(CC)CCCNC(=O)c1ccnc(Nc2cc(C(=O)Nc3ccncc3)ccn2)c1 [Compound 44, N-(3-(diethylamino)propyl)-2-((4-(pyridin-4-ylcarbamoyl)pyridin-2-yl)amino)isonicotinamide]",1.15 µM,>100 µM,>100 µM,<10%
"CCN(CC)CCCNS(=O)(=O)c1cccc(Nc2cc(C(=O)Nc3ccncc3)ccn2)c1 [Compound 46, 2-((3-(N-(3-(diethylamino)propyl)sulfamoyl)phenyl)amino)-N-(pyridin-4-yl)isonicotinamide]",7.5 µM,>100 µM,>100 µM,
"O=C(Nc1ccncc1)c1ccc(Nc2cccc(S(=O)(=O)NCCCN3CCOCC3)c2)cc1 [Compound 15, 4-((3-(N-(3-morpholinopropyl)sulfamoyl)phenyl)amino)-N-(pyridin-4-yl)benzamide]",5 µM,36 µM,>>44 μM,<10%
"O=C(Nc1ccncc1)c1ccc(Nc2cccc(S(=O)(=O)NCCN3CCCC3)c2)cc1 [Compound 16, N-(pyridin-4-yl)-4-((3-(N-(2-(pyrrolidin-1-yl)ethyl)sulfamoyl)phenyl)amino)benzamide]",≥ 4.6 µM,10 µM,78 µM,
"CCN(CC)CCCNS(=O)(=O)c1cccc(Nc2cccc(C(=O)N(C)c3ccncc3)c2)c1 [Compound 19, 3-((3-(N-(3-(diethylamino)propyl)sulfamoyl)phenyl)amino)-N-methyl-N-(pyridin-4-yl)benzamide]",> 5 µM,>100 µM,>100 µM,
"O=C(NCCCN1CCOCC1)c1cccc(Nc2ccc(C(=O)Nc3ccncc3)cc2)c1 [Compound 14, N-(3-morpholinopropyl)-3-((4-(pyridin-4-ylcarbamoyl)phenyl)amino)benzamide]",> 2.5 µM,20 µM,70 µM,
"CCN(CC)CCCNC(=O)c1cccc(Nc2ccc(C(=O)Nc3ccncc3)cc2)n1 [Compound 36, N-(3-(diethylamino)propyl)-6-((4-(pyridin-4-ylcarbamoyl)phenyl)amino)picolinamide]",> 5 µM,58 µM,>>100 μM,
"CCN(CC)CCCNC(=O)c1ccc(Nc2cccc(C(=O)Nc3ccncc3)c2)cc1 [Compound 2, 3-((4-((3-(diethylamino)propyl)carbamoyl)phenyl)amino)-N-(pyridin-4-yl)benzamide]",> 5 µM,156 µM,103 µM,
"CCN(CC)CCCNC(=O)c1cccc(Nc2ccc(C(=O)Nc3ccncc3)cc2)c1 [Compound 13, N-(3-(diethylamino)propyl)-3-((4-(pyridin-4-ylcarbamoyl)phenyl)amino)benzamide]",> 5 µM,34 µM,93 µM,
